# Measurements from patent US7687435B2, “Benzoyl-substituted phenylalanineamides” (BASF Aktiengesellschaft, priority 2003, dated 2010).
# Assays:
# pig weed = assay: greenhouse post-emergence herbicidal test, pig weed; format: in vivo, Amaranthus retroflexus
# Excerpt: (§1) The seeds of the test plants were sown separately for each species. For the post-emergence treatment, the test plants were first grown to a height of 3 to 15 cm, depending on the plant habit, and only then treated with the active ingredients which had been suspended or emulsified in water. For this purpose, the test plants were either sown directly and grown in the same containers, or they were first grown separately as seedlings and transplanted into the test containers a few days prior to treatment. The rate of application for the post-emergence treatment was 1.0, 0.5, 0.25, 0.125 or 0.0625 kg/ha of a.s. (active substance). Depending on the species, the plants were kept at 10-25° C. or 20-35° C. The test period extended over 2 to 4 weeks. During this time, the plants were tended, and their response to the individual treatments was evaluated. Evaluation was carried out using a scale from 0 to 100. 100 means no emergence of the plants, or complete destruction of at least the aerial parts, and 0 means no damage, or normal course of growth. The plants used in the greenhouse experiments belonged to the following species: [table]
# lambsquarters = assay: greenhouse post-emergence herbicidal test, lambsquarters; format: in vivo, Chenopodium album
# Excerpt: as §1
# green foxtail = assay: greenhouse post-emergence herbicidal test, green foxtail; format: in vivo, Setaria viridis
# Excerpt: as §1
# black bindweed = assay: greenhouse post-emergence herbicidal test, black bindweed; format: in vivo, Polygonum convolvulus
# Excerpt: as §1
# cleavers harrif = assay: greenhouse post-emergence herbicidal test, cleavers harrif; format: in vivo, Galium aparine
# Excerpt: as §1
# velvet leaf = assay: greenhouse post-emergence herbicidal test, velvet leaf; format: in vivo, Abutilon theophrasti; details: application rate 0.5 kg/ha
# Excerpt: as §1
# wild oat = assay: greenhouse post-emergence herbicidal test, wild oat; format: in vivo, Avena fatua; details: application rate 0.5 kg/ha
# Excerpt: as §1
compound,measurement,setting,value
CNC(=O)C(NC(=O)c1ccccc1C(F)(F)F)C(O)c1ccccc1 (racemic) [Compound 3.2],post-emergence action against pig weed,pig weed; application rate 1.00 kg/ha,very good
same,post-emergence action against lambsquarters,lambsquarters; application rate 1.00 kg/ha,very good
same,post-emergence action against green foxtail,green foxtail; application rate 1.00 kg/ha,very good
CNC(=O)C(NC(=O)c1ccc(F)cc1C(F)(F)F)C(O)c1ccccc1[N+](=O)[O-] (racemic) [Compound 3.67],post-emergence action against pig weed,pig weed; application rate 1.00 kg/ha,very good
same,post-emergence action against lambsquarters,lambsquarters; application rate 1.00 kg/ha,very good
same,post-emergence action against green foxtail,green foxtail; application rate 1.00 kg/ha,very good
CNC(=O)C(NC(=O)c1ccc(F)cc1C(F)(F)F)C(OC(=O)N(C)C)c1cccc(N)c1 (racemic) [Compound 3.123],post-emergence action against pig weed,pig weed; application rate 1.00 kg/ha,very good
same,post-emergence action against lambsquarters,lambsquarters; application rate 1.00 kg/ha,very good
same,post-emergence action on black bindweed,black bindweed; application rate 1.00 kg/ha,very good
CNC(=O)C(NC(=O)c1ccc(F)cc1C(F)(F)F)C(OC(=O)N(C)C)c1cccc(NS(C)(=O)=O)c1 (racemic) [Compound 3.128],post-emergence action against pig weed,pig weed; application rate 1.00 kg/ha,very good
same,post-emergence action against lambsquarters,lambsquarters; application rate 1.00 kg/ha,very good
same,post-emergence action against green foxtail,green foxtail; application rate 1.00 kg/ha,very good
CNC(=O)C(NC(=O)c1ccc(F)cc1C(F)(F)F)C(O[Si](C)(C)C(C)(C)C)c1ccccc1 (racemic) [Compound 3.154],post-emergence control of cleavers harrif,cleavers harrif; application rate 1.0 kg/ha,very good
same,post-emergence action against pig weed,pig weed; application rate 1.00 kg/ha,very good
same,post-emergence action against lambsquarters,lambsquarters; application rate 1.00 kg/ha,very good
same,post-emergence action on black bindweed,black bindweed; application rate 1.00 kg/ha,very good
same,post-emergence action against green foxtail,green foxtail; application rate 1.00 kg/ha,very good
CNC(=O)C(NC(=O)c1cccc([N+](=O)[O-])c1C)C(O)c1ccccc1 (racemic) [Compound 5.20],post-emergence action on velvet leaf,velvet leaf,very good
CNC(=O)C(NC(=O)c1ccccc1OC(F)(F)F)C(O)c1ccccc1 (racemic) [Compound 5.36],post-emergence action on velvet leaf,velvet leaf,very good
CNC(=O)C(NC(=O)c1ccccc1SC(F)F)C(O)c1ccccc1 (racemic) [Compound 5.37],post-emergence action on velvet leaf,velvet leaf,controlled
same,post-emergence control of wild oat,wild oat,controlled
CNC(=O)[C@@H](NC(=O)c1ccc(F)cc1C(F)(F)F)[C@H](O)c1cccc(F)c1C [Compound 3.10],post-emergence action against pig weed,pig weed; application rate 1.00 kg/ha,very good
same,post-emergence action against lambsquarters,lambsquarters; application rate 1.00 kg/ha,very good
same,post-emergence action against green foxtail,green foxtail; application rate 1.00 kg/ha,very good
CNC(=O)[C@@H](NC(=O)c1ccc(F)cc1C(F)(F)F)[C@H](O)c1cccc(Cl)c1C [Compound 3.11],post-emergence action against pig weed,pig weed; application rate 1.00 kg/ha,very good
same,post-emergence action against lambsquarters,lambsquarters; application rate 1.00 kg/ha,very good
same,post-emergence action against green foxtail,green foxtail; application rate 1.00 kg/ha,very good
CNC(=O)C(NC(=O)c1ccc(F)cc1C(F)(F)F)C(OC(=O)N(C)C)c1ccccc1C (stereo not shown) [Compound 3.28],post-emergence action against pig weed,pig weed; application rate 1.00 kg/ha,very good
same,post-emergence action against lambsquarters,lambsquarters; application rate 1.00 kg/ha,very good
same,post-emergence action against green foxtail,green foxtail; application rate 1.00 kg/ha,very good
"CNC(=O)C(NC(=O)c1ccc(F)cc1C(F)(F)F)C(c1ccccc1)N(C=O)Cc1ccccc1 (stereo not shown) [Compound 3.43, N-[2-(N-Benzyl-N-formylamino)-1-methylcarbamoyl-2-phenylethyl]-4-fluoro-2-trifluoromethylbenzamide]",melting point,,212 °C
CNC(=O)C(NC(=O)c1ccc(F)cc1C(F)(F)F)C(O)c1ccccc1CO (stereo not shown) [Compound 3.61],post-emergence control of cleavers harrif,cleavers harrif; application rate 0.5 kg/ha,very good
same,post-emergence action against pig weed,pig weed; application rate 0.5 kg/ha,very good
same,post-emergence action against lambsquarters,lambsquarters; application rate 0.5 kg/ha,very good
same,post-emergence action on black bindweed,black bindweed; application rate 0.5 kg/ha,very good
CNC(=O)C(NC(=O)c1ccc(F)cc1C(F)(F)F)C(O)c1ccccc1COC(C)=O (stereo not shown) [Compound 3.62],post-emergence control of cleavers harrif,cleavers harrif; application rate 0.5 kg/ha,very good
same,post-emergence action against pig weed,pig weed; application rate 0.5 kg/ha,very good
same,post-emergence action against lambsquarters,lambsquarters; application rate 0.5 kg/ha,very good
same,post-emergence action against green foxtail,green foxtail; application rate 0.5 kg/ha,very good
CNC(=O)C(NC(=O)c1ccc(F)cc1C(F)(F)F)C(O)c1ccccc1COS(C)(=O)=O (stereo not shown) [Compound 3.65],post-emergence action against pig weed,pig weed; application rate 0.5 kg/ha,very good
same,post-emergence action against lambsquarters,lambsquarters; application rate 0.5 kg/ha,very good
same,post-emergence action on black bindweed,black bindweed; application rate 0.5 kg/ha,very good
CNC(=O)C(NC(=O)c1ccc(F)cc1C(F)(F)F)C(O)c1ccccc1OCc1ccccc1 (stereo not shown) [Compound 3.66],post-emergence action against pig weed,pig weed; application rate 1.00 kg/ha,very good
same,post-emergence action against lambsquarters,lambsquarters; application rate 1.00 kg/ha,very good
same,post-emergence action against green foxtail,green foxtail; application rate 1.00 kg/ha,very good
CNC(=O)C(NC(=O)c1ccc(F)cc1C(F)(F)F)C(OC(=O)COCCOCCOC)c1ccccc1COC(=O)COCCOCCOC (stereo not shown) [Compound 3.96],post-emergence control of cleavers harrif,cleavers harrif; application rate 0.5 kg/ha,very good
same,post-emergence action against pig weed,pig weed; application rate 0.5 kg/ha,very good
same,post-emergence action against lambsquarters,lambsquarters; application rate 0.5 kg/ha,very good
same,post-emergence action on black bindweed,black bindweed; application rate 0.5 kg/ha,very good
CNC(=O)C(NC(=O)c1ccc(F)cc1C(F)(F)F)C(OC(=O)N(C)C)c1ccccc1COC(=O)N(C)C (stereo not shown) [Compound 3.131],post-emergence control of cleavers harrif,cleavers harrif; application rate 0.5 kg/ha,very good
same,post-emergence action against pig weed,pig weed; application rate 0.5 kg/ha,very good
same,post-emergence action against lambsquarters,lambsquarters; application rate 0.5 kg/ha,very good
same,post-emergence action on black bindweed,black bindweed; application rate 0.5 kg/ha,very good
CNC(=O)[C@@H](NC(=O)c1ccc(F)cc1C(F)(F)F)[C@H](OC(=O)NS(=O)(=O)C(F)(F)F)c1cccc(F)c1C [Compound 3.137],post-emergence action against pig weed,pig weed; application rate 1.00 kg/ha,very good
same,post-emergence action against lambsquarters,lambsquarters; application rate 1.00 kg/ha,very good
same,post-emergence action on black bindweed,black bindweed; application rate 1.00 kg/ha,very good
CC[Si](CC)(CC)OCc1ccccc1C(O[Si](CC)(CC)CC)C(NC(=O)c1ccc(F)cc1C(F)(F)F)C(=O)NC (stereo not shown) [Compound 3.152],post-emergence control of cleavers harrif,cleavers harrif; application rate 1.0 kg/ha,very good
same,post-emergence action against pig weed,pig weed; application rate 1.00 kg/ha,very good
same,post-emergence action against lambsquarters,lambsquarters; application rate 1.00 kg/ha,very good
same,post-emergence action against green foxtail,green foxtail; application rate 1.00 kg/ha,very good
CNC(=O)[C@@H](NC(=O)c1ccc(F)cc1C(F)(F)F)[C@H](OC(=O)COCCOCCOC)c1ccc(F)c(F)c1F [Compound 4.24],post-emergence control of cleavers harrif,cleavers harrif; application rate 0.5 kg/ha,very good
same,post-emergence action against pig weed,pig weed; application rate 0.5 kg/ha,very good
same,post-emergence action against lambsquarters,lambsquarters; application rate 0.5 kg/ha,very good
same,post-emergence action against green foxtail,green foxtail; application rate 0.5 kg/ha,very good
